27 molecules from US20050209278A1, “Piperidinyl- and piperazinyl-sulfonylmethyl hydroxamic acids and their use as protease inhibitors” (priority 2002, published 2005) can be followed below.

Common to all, as to assay type: biochemical
One test concerns the target T1, MMP-1 (Homo sapiens, UniProt P03956).
T1 construct: made in house; host or cells: MMP-1-transfected HT-1080 cells (spent media)
T1 sequence (P03956 100-469): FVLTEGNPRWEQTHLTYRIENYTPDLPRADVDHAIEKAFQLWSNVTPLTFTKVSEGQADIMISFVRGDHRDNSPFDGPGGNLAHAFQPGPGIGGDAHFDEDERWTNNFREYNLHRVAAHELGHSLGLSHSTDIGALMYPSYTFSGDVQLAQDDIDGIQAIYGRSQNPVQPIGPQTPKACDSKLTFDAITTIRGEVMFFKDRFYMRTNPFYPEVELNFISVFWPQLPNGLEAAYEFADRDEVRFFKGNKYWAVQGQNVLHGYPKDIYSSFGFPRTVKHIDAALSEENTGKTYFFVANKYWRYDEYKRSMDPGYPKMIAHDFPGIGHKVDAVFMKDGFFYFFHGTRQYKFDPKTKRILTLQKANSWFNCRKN
As to the kind of experiment: MMP-1 inhibition (in vitro Ki). The note with it: Table 9; read-out: MMP-1 Ki (IC-50).

The target of another test is T2, MMP-2 (Homo sapiens, UniProt P08253).
T2 construct: made in house; host or cells: MMP-2-transfected p2AHT2 cells
T2 sequence (P08253 110-660): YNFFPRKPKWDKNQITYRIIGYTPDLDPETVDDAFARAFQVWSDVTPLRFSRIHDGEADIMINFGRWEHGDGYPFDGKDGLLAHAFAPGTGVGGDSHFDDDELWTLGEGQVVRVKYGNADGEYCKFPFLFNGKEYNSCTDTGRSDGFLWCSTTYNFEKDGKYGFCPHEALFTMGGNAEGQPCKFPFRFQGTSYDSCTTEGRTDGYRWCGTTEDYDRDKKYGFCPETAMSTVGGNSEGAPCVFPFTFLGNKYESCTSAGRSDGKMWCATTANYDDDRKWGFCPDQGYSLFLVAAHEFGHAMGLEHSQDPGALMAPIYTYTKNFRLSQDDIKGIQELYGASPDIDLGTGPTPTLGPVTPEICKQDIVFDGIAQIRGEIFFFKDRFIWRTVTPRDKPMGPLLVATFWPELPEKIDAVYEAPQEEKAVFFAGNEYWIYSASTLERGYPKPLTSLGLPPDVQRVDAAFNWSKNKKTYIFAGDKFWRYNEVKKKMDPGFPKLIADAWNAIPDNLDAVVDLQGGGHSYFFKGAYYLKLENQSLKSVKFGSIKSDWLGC
Briefly: MMP-2 inhibition (in vitro Ki). The following applies: Table 9; read-out: MMP-2 Ki (IC-50).

Another test has as its target T3, MMP-9 (Homo sapiens, UniProt P14780).
T3 construct: made in house; host or cells: MMP-9-transfected HT1080 cells (spent media)
Briefly: MMP-9 inhibition (in vitro Ki). The note with it: Table 9; read-out: MMP-9 Ki (IC-50).

In another test the target is T4, MMP-13 (Homo sapiens, UniProt P45452).
T4 construct: made in house; host or cells: baculovirus / insect cells
As to the kind of experiment: MMP-13 inhibition (in vitro Ki). The following applies: Table 9; read-out: MMP-13 Ki (IC-50).

Another test concerns the target T5, MMP-14 (Homo sapiens, UniProt P50281).
T5 construct: The catalytic domain enzyme was expressed in E. coli inclusion bodies, solubilized in urea; made in house
Briefly: MMP-14 inhibition (in vitro Ki). The note with it: Table 9; read-out: MMP-14 Ki (IC-50).

SMILES strings stand for the structures.

One may read the Ki as a dissociation constant, usually derived from enzyme kinetics or from competition with a known ligand.

T3 sequence (P14780 107-707 limits assumed): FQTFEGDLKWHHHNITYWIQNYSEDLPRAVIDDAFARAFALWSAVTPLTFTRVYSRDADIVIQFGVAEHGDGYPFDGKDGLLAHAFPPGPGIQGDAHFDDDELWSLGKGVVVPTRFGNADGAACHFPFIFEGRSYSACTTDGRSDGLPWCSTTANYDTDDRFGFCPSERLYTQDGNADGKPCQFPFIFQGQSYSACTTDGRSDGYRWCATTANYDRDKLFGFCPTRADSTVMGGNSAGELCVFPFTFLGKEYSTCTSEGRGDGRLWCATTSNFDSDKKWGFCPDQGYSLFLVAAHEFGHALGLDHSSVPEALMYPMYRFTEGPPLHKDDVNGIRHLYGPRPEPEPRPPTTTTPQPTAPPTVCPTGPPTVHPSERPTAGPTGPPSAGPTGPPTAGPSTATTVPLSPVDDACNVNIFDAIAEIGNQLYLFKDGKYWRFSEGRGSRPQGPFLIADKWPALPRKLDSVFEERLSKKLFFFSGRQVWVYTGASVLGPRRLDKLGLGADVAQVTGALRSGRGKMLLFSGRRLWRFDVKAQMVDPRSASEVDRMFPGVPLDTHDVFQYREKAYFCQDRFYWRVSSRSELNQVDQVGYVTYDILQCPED

On to `COC(=O)CCCC1CCN(S(=O)(=O)C2(C(=O)NO)CCOCC2)CC1` [Example A148], for which the Ki at MMP-1 was 2710 nM; on MMP-2 it was 6.67 nM; at MMP-9, 3.79 nM; at MMP-13, 5.21 nM; at MMP-14 it was 1730 nM.

Consider `COCCOc1ccc(C2CCN(S(=O)(=O)C3(C(=O)NO)CCOCC3)CC2)nc1` [Example A149], for which the inhibition constant (Ki) on MMP-1 is greater than 10000 nM; at MMP-2, 4.42 nM; on MMP-9 it was 7.04 nM; on MMP-13 it was 2.63 nM; at MMP-14 it was 6550 nM.

With `O=C(CCCCN1CCN(S(=O)(=O)C2(C(=O)NO)CCOCC2)CC1)c1ccc(OC(F)(F)F)cc1` [Example A150], the Ki on MMP-1 was greater than 10000 nM; on MMP-2, 243 nM; at MMP-9, 1030 nM; at MMP-13, 19.8 nM; at MMP-14, greater than 10000 nM.

With `O=C(NO)C1(S(=O)(=O)N2CCC(c3cnc(OCC4CC4)cn3)CC2)CCOCC1` [Example A151], the Ki at MMP-1 is greater than 10000 nM; on MMP-2, 1.34 nM; at MMP-9, 0.72 nM; on MMP-13, 1.53 nM; on MMP-14 it was 3100 nM.

As for `CC(F)(F)Cc1ccc(C2CCN(S(=O)(=O)C3(C(=O)NO)CCOCC3)CC2)nc1` [Example A152], the inhibition constant Ki was greater than 10000 nM on MMP-1; 2.36 nM on MMP-2; 9.85 nM on MMP-9; 5.25 nM on MMP-13; 4330 nM on MMP-14.

Consider `O=C(NO)C1(S(=O)(=O)N2CCC(OCCCn3nnc(-c4ccc(OC(F)(F)F)cc4)n3)CC2)CCOCC1` [Example A153], for which the inhibitory constant (Ki) at MMP-1 was greater than 10000 nM; at MMP-2, 175 nM; on MMP-9 it was 1910 nM; on MMP-13 it was 0.37 nM; at MMP-14, greater than 10000 nM.

In the case of `CCCC(F)(F)c1ccc(C2CCN(S(=O)(=O)C3(C(=O)NO)CCOCC3)CC2)nc1` [Example A156], the inhibitory constant (Ki) on MMP-1 is 4550 nM; on MMP-2 it was 3.14 nM; at MMP-9, 9.5 nM; on MMP-13, 1.57 nM; at MMP-14, greater than 10000 nM.

In the case of `O=C(NO)C1(S(=O)(=O)N2CCC(F)(c3ccc(CCCC(F)(F)F)cn3)CC2)CCOCC1` [Example A157], the inhibition constant Ki at MMP-1 was greater than 10000 nM; on MMP-2 it was 36.5 nM; at MMP-9, 2.94 nM; on MMP-13, 2.54 nM; on MMP-14 it was greater than 10000 nM.

Consider `O=C(NO)C1(S(=O)(=O)N2CCC(c3ccc(CCC(F)(F)C(F)(F)F)cn3)CC2)CCN(c2ccc(Cl)cc2)CC1` [Example A158], for which the Ki at MMP-1 is greater than 10000 nM; at MMP-2, 14.6 nM; on MMP-9, 13.4 nM; on MMP-13, 8.98 nM; on MMP-14 it was greater than 10000 nM.

In the case of `CCCC(=O)c1ccc(C2CCN(S(=O)(=O)C3(C(=O)NO)CCOCC3)CC2)nc1` [Example A159], the Ki on MMP-1 amounted to 1840 nM; on MMP-2, 2.65 nM; at MMP-9, 3.99 nM; on MMP-13, 1.91 nM; on MMP-14, 8580 nM.

`O=C(NO)C1(S(=O)(=O)N2CCC(CCCc3nc(-c4ccc(OC(F)(F)F)cc4)no3)CC2)CCOCC1` [Example A160]: the Ki is greater than 10000 nM on MMP-1; 529 nM at MMP-2; 613 nM at MMP-9; 40.9 nM on MMP-13; greater than 10000 nM on MMP-14.

Regarding `O=C(NO)C1(S(=O)(=O)N2CCC(c3ccc(CCC(F)F)cn3)CC2)CCOCC1` [Example A161], the inhibition constant Ki on MMP-1 was determined as 2970 nM; at MMP-2, 0.513 nM; on MMP-9, 0.223 nM; on MMP-13, 0.474 nM; at MMP-14, 1670 nM.

With `O=C(NO)C1(S(=O)(=O)N2CCC(c3ccc(COCC4CC4)cn3)CC2)CCOCC1` [Example A162], the Ki on MMP-1 is 4510 nM; on MMP-2, 1.15 nM; at MMP-9, 0.194 nM; on MMP-13, 0.301 nM; at MMP-14, 2290 nM.

`CN(C(=O)CCCCC1CCN(S(=O)(=O)C2(C(=O)NO)CCOCC2)CC1)c1ccc(OC(F)(F)F)cc1` [Example A163]: the Ki is 1490 nM at MMP-1; 225 nM on MMP-2; 1630 nM at MMP-9; 2.53 nM on MMP-13; greater than 10000 nM on MMP-14.

Take `CCS(=O)(=O)c1ccc(N2CCN(S(=O)(=O)C3(C(=O)NO)CCOCC3)CC2)cc1` [Example A164]: the Ki on MMP-1 is greater than 10000 nM; at MMP-2, 63 nM; on MMP-9 it was 2970 nM; on MMP-13 it was 42.2 nM; on MMP-14, greater than 10000 nM.

Regarding `O=C(NO)C1(S(=O)(=O)N2CCC(c3ccc(CCC(F)(F)C(F)(F)F)cn3)CC2)CCN(c2cccnc2)CC1` [Example A165], the Ki on MMP-1 was greater than 10000 nM; on MMP-2, 1.67 nM; at MMP-9, 0.979 nM; on MMP-13, 0.647 nM; on MMP-14, 7210 nM.

As to `COCCCc1ccc(C2CCN(S(=O)(=O)C3(C(=O)NO)CCOCC3)CC2)nc1` [Example A166], the Ki on MMP-1 is greater than 10000 nM; at MMP-2, 1.93 nM; on MMP-9 it was 1.77 nM; on MMP-13, 1.03 nM; at MMP-14 it was 5060 nM.

Turning to `O=C(NO)C1(S(=O)(=O)N2CCC(c3ccc(CCC(F)(F)C(F)(F)F)cn3)CC2)CCN(c2ccccc2)CC1` [Example A167], the Ki at MMP-1 is greater than 10000 nM; at MMP-2, 3.04 nM; on MMP-9, 2.21 nM; on MMP-13 it was 1.54 nM; on MMP-14, greater than 10000 nM.

For `CC(F)(F)COc1ccc(C2CCN(S(=O)(=O)C3(C(=O)NO)CCOCC3)CC2)nc1` [Example A168], the Ki turned out to be 2290 nM at MMP-1; 1.7 nM at MMP-2; 1.5 nM on MMP-9; 1.72 nM at MMP-13; 8570 nM at MMP-14.

Turning to `C/C(COc1ccc(C2CCN(S(=O)(=O)C3(C(=O)NO)CCOCC3)CC2)nc1)=N/O` [Example A169], the Ki was found to be 5370 nM at MMP-1; 3.5 nM on MMP-2; 10.2 nM at MMP-9; 4.53 nM on MMP-13; 9300 nM at MMP-14.

In the case of `O=C(NO)C1(S(=O)(=O)N2CCC(c3ccc(CCC(F)(F)C(F)(F)F)cn3)CC2)CCNCC1` [Example A170], the Ki on MMP-1 was greater than 10000 nM; at MMP-2, 4.21 nM; at MMP-9 it was 4.01 nM; at MMP-13, 1.55 nM; on MMP-14, greater than 10000 nM.

For `COCC#Cc1ccc(C2CCN(S(=O)(=O)C3(C(=O)NO)CCOCC3)CC2)nc1` [Example A171], the inhibition constant (Ki) at MMP-1 worked out at 4180 nM; at MMP-2 it was 0.42 nM; on MMP-9, 0.54 nM; at MMP-13 it was 0.31 nM; at MMP-14 it was 604 nM.

Regarding `O=C(NO)C1(S(=O)(=O)N2CCC(c3ccc(OCC4CC4)cn3)CC2)CCOCC1` [Example A172], the Ki was 4070 nM on MMP-1; 1.31 nM at MMP-2; 0.36 nM at MMP-9; 1.24 nM on MMP-13; 3620 nM on MMP-14.

`O=C(NO)C1(S(=O)(=O)N2CCC(c3ccc(COCC(F)(F)F)cn3)CC2)CCOCC1` [Example A173]: the Ki at MMP-1 is greater than 10000 nM; on MMP-2, 7.59 nM; at MMP-9, 1.84 nM; at MMP-13, 1.91 nM; on MMP-14 it was greater than 10000 nM.

For the molecule `O=C(NO)C1(S(=O)(=O)N2CCC(c3ccc(CCC(F)(F)C(F)(F)F)cn3)CC2)CCN(Cc2ccccc2)CC1` [Example A174], the Ki at MMP-1 was greater than 10000 nM; on MMP-2 it was 1.31 nM; on MMP-9, 0.73 nM; on MMP-13 it was 0.52 nM; at MMP-14, 6520 nM.

Regarding `O=C(NO)C1(S(=O)(=O)N2CCN(c3ccc(-c4nnn(CC5CC5)n4)cc3)CC2)CCOCC1` [Example A175], the Ki on MMP-1 is 854 nM; at MMP-2 it was 0.07 nM; at MMP-9, 1.37 nM; at MMP-13 it was 0.09 nM; at MMP-14, 591 nM.

With `CCc1nc(-c2ccc(N3CCN(S(=O)(=O)C4(C(=O)NO)CCOCC4)CC3)cc2)no1` [Example A176], the Ki on MMP-1 is 1710 nM; on MMP-2, 0.08 nM; on MMP-9, 0.81 nM; on MMP-13, 0.15 nM; on MMP-14 it was 184 nM.
